type: physicochemical; conditions: Tris-hydrochloric acid buffer (pH 7.5) 50 mmol/L, magnesium chloride 5 mmol/L, evaluation compound 1 µmol/L, 37°C, 60 minutes, average of duplicate
Procedure, shortened: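 Conversion of compounds to brexpiprazole measured in buffer at 37°C, in duplicate: compound added after 3 min pre-incubation of reaction solution, and reaction stopped at 0 or 60 min with acetonitrile/isopropanol (4:1) containing internal standards. Quantified against calibration samples at 0.01, 0.1 and 1 µmol/L.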

Row | Structure (SMILES) | Concentration of brexpiprazole formed | Concentration of evaluation compound decreased
1 | CN1CCN(CCOP(=O)([O-])OC[N+]2(CCCCOc3ccc4ccc(=O)[nH]c4c3)CCN(c3cccc4sccc34)CC2)CC1 [EX 117] | 0 nM | 50 nM
2 | O=c1ccc2ccc(OCCCC[N+]3(COP(=O)([O-])OCCN4CCCCC4)CCN(c4cccc5sccc45)CC3)cc2[nH]1 [EX 118] | 0 nM | 60 nM
3 | O=c1ccc2ccc(OCCCC[N+]3(COP(=O)([O-])OCCN4CCC(F)(F)CC4)CCN(c4cccc5sccc45)CC3)cc2[nH]1 [EX 119] | 0 nM | 140 nM
4 | CCC(=O)OCOP(=O)([O-])OC[N+]1(CCCCOc2ccc3ccc(=O)[nH]c3c2)CCN(c2cccc3sccc23)CC1 [EX 120] | 0 nM | 50 nM
5 | CCCC(=O)OCOP(=O)([O-])OC[N+]1(CCCCOc2ccc3ccc(=O)[nH]c3c2)CCN(c2cccc3sccc23)CC1 [EX 121] | 0 nM | 90 nM
6 | CCC(C)(C)C(=O)OCOP(=O)([O-])OC[N+]1(CCCCOc2ccc3ccc(=O)[nH]c3c2)CCN(c2cccc3sccc23)CC1 [EX 122] | 0 nM | 50 nM
7 | CCCC(C)(C)C(=O)OCOP(=O)([O-])OC[N+]1(CCCCOc2ccc3ccc(=O)[nH]c3c2)CCN(c2cccc3sccc23)CC1 [EX 123] | 0 nM | -110 nM
8 | O=C(OCOP(=O)([O-])OC[N+]1(CCCCOc2ccc3ccc(=O)[nH]c3c2)CCN(c2cccc3sccc23)CC1)C12CC3CC(CC(C3)C1)C2 [EX 124] | 0 nM | 100 nM
9 | O=C(CCO)OCOP(=O)([O-])OC[N+]1(CCCCOc2ccc3ccc(=O)[nH]c3c2)CCN(c2cccc3sccc23)CC1 [EX 125] | 0 nM | 130 nM
10 | O=C(CCCCCO)OCOP(=O)([O-])OC[N+]1(CCCCOc2ccc3ccc(=O)[nH]c3c2)CCN(c2cccc3sccc23)CC1 [EX 126] | 0 nM | 160 nM
11 | O=C(OCOP(=O)([O-])OC[N+]1(CCCCOc2ccc3ccc(=O)[nH]c3c2)CCN(c2cccc3sccc23)CC1)C1CCOCC1 [EX 127] | 0 nM | 40 nM
12 | CC(C)(C)OC(=O)NC(C)(C)C(=O)OCOP(=O)([O-])OC[N+]1(CCCCOc2ccc3ccc(=O)[nH]c3c2)CCN(c2cccc3sccc23)CC1 [EX 128] | 0 nM | -30 nM
13 | CCOC(=O)OCOP(=O)([O-])OC[N+]1(CCCCOc2ccc3ccc(=O)[nH]c3c2)CCN(c2cccc3sccc23)CC1 [EX 129] | 0 nM | 90 nM
14 | CC(C)OC(=O)OCOP(=O)([O-])OC[N+]1(CCCCOc2ccc3ccc(=O)[nH]c3c2)CCN(c2cccc3sccc23)CC1 [EX 130] | 0 nM | -20 nM
15 | CCOCCOC(=O)OCOP(=O)([O-])OC[N+]1(CCCCOc2ccc3ccc(=O)[nH]c3c2)CCN(c2cccc3sccc23)CC1 [EX 132] | 0 nM | 130 nM
16 | CC(C)OCCOC(=O)OCOP(=O)([O-])OC[N+]1(CCCCOc2ccc3ccc(=O)[nH]c3c2)CCN(c2cccc3sccc23)CC1 [EX 133] | 0 nM | 140 nM
17 | CCOCCOCCOC(=O)OCOP(=O)([O-])OC[N+]1(CCCCOc2ccc3ccc(=O)[nH]c3c2)CCN(c2cccc3sccc23)CC1 [EX 134] | 0 nM | 70 nM
18 | CCCCOCCOCCOC(=O)OCOP(=O)([O-])OC[N+]1(CCCCOc2ccc3ccc(=O)[nH]c3c2)CCN(c2cccc3sccc23)CC1 [EX 135] | 0 nM | 70 nM
19 | CCOCCOCCOCCOC(=O)OCOP(=O)([O-])OC[N+]1(CCCCOc2ccc3ccc(=O)[nH]c3c2)CCN(c2cccc3sccc23)CC1 [EX 136] | 0 nM | 0 nM
20 | CC(C)OCCOCCOCCOC(=O)OCOP(=O)([O-])OC[N+]1(CCCCOc2ccc3ccc(=O)[nH]c3c2)CCN(c2cccc3sccc23)CC1 [EX 137] | 0 nM | 90 nM
21 | CCCCOCCOCCOCCOC(=O)OCOP(=O)([O-])OC[N+]1(CCCCOc2ccc3ccc(=O)[nH]c3c2)CCN(c2cccc3sccc23)CC1 [EX 138] | 0 nM | 90 nM
22 | COCCCOC(=O)OCOP(=O)([O-])OC[N+]1(CCCCOc2ccc3ccc(=O)[nH]c3c2)CCN(c2cccc3sccc23)CC1 [EX 139] | 0 nM | 120 nM
23 | O=C(OCCCOC1CCCCO1)OCOP(=O)([O-])OC[N+]1(CCCCOc2ccc3ccc(=O)[nH]c3c2)CCN(c2cccc3sccc23)CC1 (centres unmarked) [EX 140] | 0 nM | -20 nM
24 | O=C(OCOP(=O)([O-])OC[N+]1(CCCCOc2ccc3ccc(=O)[nH]c3c2)CCN(c2cccc3sccc23)CC1)OC1CCOCC1 [EX 141] | 0 nM | 20 nM
25 | O=C(OCOP(=O)([O-])OC[N+]1(CCCCOc2ccc3ccc(=O)[nH]c3c2)CCN(c2cccc3sccc23)CC1)OCC1CCOCC1 [EX 142] | 0 nM | -70 nM
26 | CCOC(=O)CCOC(=O)OCOP(=O)([O-])OC[N+]1(CCCCOc2ccc3ccc(=O)[nH]c3c2)CCN(c2cccc3sccc23)CC1 [EX 143] | 0 nM | 50 nM
27 | CCOC(=O)CCCCCOC(=O)OCOP(=O)([O-])OC[N+]1(CCCCOc2ccc3ccc(=O)[nH]c3c2)CCN(c2cccc3sccc23)CC1 [EX 144] | 0 nM | 120 nM
28 | O=C(O)CCCCCOC(=O)OCOP(=O)([O-])OC[N+]1(CCCCOc2ccc3ccc(=O)[nH]c3c2)CCN(c2cccc3sccc23)CC1 [EX 145] | 0 nM | 30 nM

Reference: patent EP4707284A1, “HETEROCYCLIC COMPOUND AND USE THEREOF” (Otsuka Pharmaceutical Co., Ltd., priority 2023, dated 2024)
